Source: US9598448B2, “Osmium (II) arene imino anti-cancer complexes” (University of Warwick, priority 2010, dated 2017)
Read-outs that look alike come from different tables or passages of the source.

Key:
[1] = system: human A549 lung cancer cells; conditions: cited from earlier work
[2] = cited from earlier work
[3] = system: human ovarian A2780 cancer cells; assay: SRB growth inhibition assay, A2780; type: cell-based
Protocol: The concentrations of the osmium complexes that inhibit 50% of the proliferation of human ovarian A2780 cancer cells were determined by sulforhodamine B test. A2780 cells were seeded in 96-well plate (Falcon) at 5000 cells/well, after the incubation for 48 h, The complexes were solubilised in DMSO (Sigma) to provide 10 mM stocks. The stocks were serially diluted by cell culture media to give concentrations four-fold than the final concentrations for the assay. The dilutions of complexes in cell culture media were added to the 96-well plate with cells in triplicates to achieve the final concentrations. The final DMSO concentration in each well was no more than 1% (v/v). The complexes were removed after 24 h. The cells were washed with Phosphate Buffered Saline once and cell culture media was added 150 μL/well. The cells were recovered for 72 h. The surviving cells were fixed by adding 150 μL/well of 50% (w/v) trichloroacetic acid and incubated for 1 h at 277 K (277 K). The plates were washed with tap water three times and dried under a flow of warm air, 0.4% sulforhodamine B (Sigma) solution 100 μL/well followed by washing with 1% acetic acid five times and dried under a flow of warm air. The dye was dissolved in 10 mM Tris buffer […] The absorbance of each well was obtained by the Multiskan Ascent plate reader (Labsystems) at 540 nm. The absorbance value of SRB in each well is directly proportional to the cell number. Then the absorbance can be plotted against concentration and the IC50 determined by using Origin software.
The cytotoxicity studies were carried out as described previously above.

[4] = system: tubulin; assay: Tubulin polymerization assay; type: biochemical; conditions: 37° C., 60 min; for Inhibition of Tubulin Polimerziation: Osmium Compounds at 10 μM
Protocol: To follow the anticancer mechanism indicated by COMPARE, We have investigated whether osmium complexes can interacted directly with tubulin.
A Cytoskeleton tubulin polymerization assay kit (catalog no BK004) was used in the tubulin polymerization study. Briefly, 10 μL of general tubulin buffer (80 mM PIPES, pH 6.9, 2 mM MgCl2, and 0.5 mM EGTA) containing osmium compound, colchicine or taxol was pipetted into the prewarmed 96 well microplate. Tubulin (defrosted to room temperature from −80° C. and then placed on ice before use) was diluted with tubulin polymerization buffer with 1 mM GTP to a final concentration of 4 mg mL^−1. Diluted tubulin (100 μL) was added into the wells containing osmium compound, colchicine or taxol. Diluted tubulin (100 μL) mixed with general tubulin buffer (10 μL) served as control. The absorbance at 340 nm was read immediately with a Tecan microplate reader.

[5] = SRB, 24 h exposure, 72 h recovery, read-out: IC50 values for azopyridine complexes against A2780 ovarian cancer cells
[6] = SRB, 24 h exposure, 72 h recovery, read-out: IC50 to A2780 cell line

In the case of `CN(C)c1ccc(N=Nc2ccccn2)cc1.F[P-](F)(F)(F)(F)F.[Cl-].[Os+2].c1ccc(-c2ccccc2)cc1` [Complex 11, [(η^6-bip)Os(azpy-NMe2)Cl]PF6], the “cytotoxicity against the A549 cancer cell line” value [1] is given as “did not show significant cytotoxicity”, the “activity towards human A549 lung cancer cells” value ([1]; up to concentrations of 100 μM) is given as “No activity” and the “solubility (in water / under test conditions), earlier report” value ([2]; listed as 11) is given as “low solubility”. The “solubility (in water / under test conditions), earlier report” value ([2]; listed as [(η^6-bip)Os(Azpy-NMe2)Cl]PF6) was “poor solubility in water” and the IC50 [3, 5] was 3.9 µM.

Compound `CN(C)c1ccc(N=Nc2ccccn2)cc1.F[P-](F)(F)(F)(F)F.[I-].[Os+2].c1ccc(-c2ccccc2)cc1` [Complex 5, [(η^6-bip)Os(azpy-NMe2)I]PF6] has an IC50 ([3]; A2780 human ovarian cancer cells, read-out: IC50 values against A2780) of 0.14 µM.

Compound “[(η^6-p-cym)Os(Azpy-OH)Cl]PF6 [Complex 10]” has an IC50 [3, 5] of 1.3 µM.

For “[Os(η^6-bip)(1-CF3-4-Cl-Azpy)I]PF6 [FY107]”, the “Inhibition of Tubulin Polimerziation” value [4] was 13.0% and the IC50 [3, 6] was 5.7 µM.

Work on [Os(η^6-bip)(pp-NMe2)Cl]PF6 [FY093] yielded an IC50 [3, 6] of 0.44 µM.

For [Os(η^6-bip)(2-F-Azpy)I]PF6 [FY069], the “Inhibition of Tubulin Polimerziation” value [4] was 21.0%, the IC50 ([4]; purified tubulin) was ~20 µM and the “effect on amount of tubulin polymerized” value ([4]; purified tubulin) was “reduced the amount of tubulin polymerized in a dose-dependent manner”. It also gave an IC50 [3, 6] of 0.63 µM.

Work on [Os(η^6-bip)(pp)Cl]PF6 [FY098] yielded an IC50 [3, 6] of 4.6 µM.

Compound “[(η^6-p-cym)Os(pp-NMe2)Cl]PF6 [Complex 16]” has an IC50 ([3]; SRB, 24 h exposure, 72 h recovery, read-out: IC50 values for iminopyridine complexes against A2780 ovarian cancer cells) of 3.5 µM.

`F[P-](F)(F)(F)(F)F.[I-].[Os+2].c1ccc(-c2ccccc2)cc1.c1ccc(N=Nc2ccccn2)cc1` [Complex 1, [(η^6-bip)Os(Azpy)I]PF6] showed an IC50 [3, 5] of 5.4 µM.

[Os(η^6-bip)(pp-NMe2)I]PF6 [FY012] gave an IC50 [3, 6] of 0.14 µM.

“[Os(η^6-p-cym)(OH-Azpy-NO2)I]PF6 [FY036]” showed an IC50 [3, 6] of 0.29 µM.

For [(η^6-bip)Os(Azpy)Cl]PF6 [Complex 7], the IC50 [3, 5] was 13.9 µM.

`Cc1ccc(C(C)C)cc1.F[P-](F)(F)(F)(F)F.[I-].[Os+2].c1ccc(N=Nc2ccccn2)cc1` [Complex 2, [(η^6-p-cym)Os(Azpy)I]PF6] gave an IC50 [3, 5] of 10.2 µM.

For [Os(η^6-bip)(1-Cl-azpy)I]PF6 [FY110], the “Inhibition of Tubulin Polimerziation” value [4] was 11.4% and the IC50 [3, 6] was 3.7 µM.

[(η^6-bip)Os(azpy-OH)Cl]PF6 [Complex 9] showed an IC50 [3, 5] of 0.8 µM.

[Os(η^6-p-cym)(pp-OH)Cl]PF6 [FY119] gave an IC50 [3, 6] of 5.5 µM.
